Measured values taken from patent publication US20060247261A1 (priority 2002, published 2006).

Biological target: T1, human cannabinoid CB2 receptor (Homo sapiens, UniProt P34972)
T1 construct: expressed in transfected cells; host or cells: Saccharomyces cerevisiae strain MMY23 (expresses a chimeric Gpa1/human Galpha-i3 G-protein alpha subunit)
Assay: Cannabinoid CB2 receptor agonist activity, yeast reporter assay
Assay type: cell-based
Conditions: for Emax: read-out: efficacy (Emax) at the cloned human cannabinoid CB2 receptor
How it was run: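 Agonism read in S. cerevisiae strain MMY23 with the human CB2 receptor integrated at ura3 under the GPD promoter, coupled through a Gpa1/human Gαi3 C-terminal chimeric G-alpha. Compounds were added in DMSO (1% final). Fluorescence versus concentration was fitted by four-parameter fit to give a concentration effect value.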

T1 sequence (P34972 whole entry): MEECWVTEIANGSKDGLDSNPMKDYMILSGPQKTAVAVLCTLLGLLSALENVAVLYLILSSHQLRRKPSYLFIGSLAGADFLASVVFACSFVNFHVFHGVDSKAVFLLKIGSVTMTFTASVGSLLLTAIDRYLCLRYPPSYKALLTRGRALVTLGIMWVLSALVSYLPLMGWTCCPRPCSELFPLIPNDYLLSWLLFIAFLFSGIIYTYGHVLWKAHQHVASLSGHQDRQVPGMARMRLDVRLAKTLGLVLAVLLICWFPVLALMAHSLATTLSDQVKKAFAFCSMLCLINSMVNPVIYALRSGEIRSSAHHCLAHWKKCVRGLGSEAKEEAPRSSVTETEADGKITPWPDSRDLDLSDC

Row | Compound | EC50 [nM] | Emax [%]
1 | O=C(NCc1ccccc1)c1cnc(Nc2ccc(Cl)cc2)nc1C(F)(F)F [Example 44, 2-(4-Chloro-phenylamino)4-trifluoromethyl-pyrimidine-5-carboxylic acid N-benzylamide] | > 1000 | < 50
2 | O=C(NCc1ccc(F)cc1)c1cnc(Nc2cc(Cl)ccc2Cl)nc1C(F)(F)F [Example 101, 2-(2,5-Dichloro-phenylamino)-4-trifluoromethyl-pyrimidine-5-carboxylic acid 4-fluoro-benzylamide] | 20 to 1000 | > 50
3 | O=C(NCc1ccccc1Cl)c1cnc(Nc2cccc(Cl)c2)nc1C(F)(F)F [Example 51, 2-(3-Chloro-phenylamino)-4-trifluoromethyl-pyrimidine-5-carboxylic acid N-(2-chlorobenzyl)amide] | > 1000 | < 50
